“Also recorded” adds a separate entry of the source.

Here are results for one compound from publication PMC4649711, “In1-ghrelin splicing variant is overexpressed in pituitary adenomas and increases their aggressive features” (Scientific Reports, 2015).

The test system of assay [1] is GH-omas. Put plainly: GH secretion from GH-oma primary cultures. The assay is classed as cell-based, human. The following applies: 100 nM; 4 h and 24 h; ELISA; % of vehicle; n = 3–7. How it is done: (§1) Pituitary adenoma specimens were dispersed into single cells by enzymatic and mechanical disruption and cultured onto tissue culture plates in serum containing medium, as previously described. Briefly, pituitary samples were resected by endoscopic transsphenoidal surgery and transferred to sterile cold (4°C) culture medium (S-MEM, Gibco, Madrid, Spain) supplemented with 0.1% BSA, 0.01% L-glutamine, 1% antibiotic-antimycotic solution, and 2.5% HEPES. Samples were minced under sterile conditions into 1–2 mm^3 pieces. […]
(§2) To examine the effects of ghrelin system components (4- and/or 24 h-incubation) on pituitary hormone release from primary pituitary adenoma and/or AtT-20 cell line, 100,000–200,000 cell/well were used. As previously reported, hormone concentrations were measured in the culture media derived from human samples according to the pituitary adenoma type using commercial ELISAs [growth hormone, GH; adrenocorticotropin, ACTH; and prolactin, PRL (reference numbers: EIA-3552, EIA-3647 and EIA-1291, respectively; DRG, Mountainside, NJ, USA)] following the manufacturer's instructions. […]
Background: An ELISA detects its analyte on a solid surface through an enzyme-linked reagent.

Assay [2] deals with ACTH-omas. Put plainly: ACTH secretion from ACTH-oma primary cultures. Format: cell-based, human. The following applies: 100 nM; 24 h; ELISA; % of vehicle; n = 3–9. The procedure:
as §1, §2

Assay [3] deals with GH-omas. Put plainly: cell viability of GH-oma primary cultures, peptide treatment. Format: cell-based, human. The following applies: 100 nM, alamar-blue. How it is done:
(§3) Pituitary adenoma specimens were dispersed into single cells by enzymatic and mechanical disruption and cultured onto tissue culture plates in serum containing medium, as previously described. Briefly, pituitary samples were resected by endoscopic transsphenoidal surgery and transferred to sterile cold (4°C) culture medium (S-MEM, Gibco, Madrid, Spain) supplemented with 0.1% BSA, 0.01% L-glutamine, 1% antibiotic-antimycotic solution, and 2.5% HEPES. Samples were minced under sterile conditions into 1–2 mm^3 pieces. Some pieces were stored at −80°C for posterior RNA isolation and, when possible, the remaining tissue samples were washed and incubated in 30 mL S-MEM medium supplemented 0.3% trypsin (Beckson, Dickinson and Company, Sparks, MD, USA) in a spinner flask (Bellco Glass, Vineland, NJ, USA) for 2 h of gentle shaking at 37°C and then, incubation was continued for another 5 min in presence of 1 mg of DNAse I (Roche, Mannheim, Germany). Dispersed cells were decanted by centrifugation and then, by repeated aspiration into a smoothtipped glass Pasteur pipette. Cells suspensions were washed once in 4.5 g/L glucose containing DMEM medium (Gibco, Madrid, Spain) supplemented with 0.1% BSA, 0.01% L-glutamine, 1% antibiotic-antimycotic solution, and 2.5% HEPES. Cell number and viability was estimated by the Trypan blue exclusion test in Neubauer chamber, where viability was always 90–100%.
As previously reported, cell viability was estimated using alamar-blue reagent (10,000 cells/well-plate; Biosource International, Camarillo, CA, USA)[30][50][52]. Briefly, cells were serum-starved for 12–16 h before the measurements and treated with serum-free medium containing 10% alamar-blue for 3 h. Reduction of alamar-blue reagent was quantified exciting at 560 nm and reading at 590 nm using the FlexStation III system (Molecular Devices, Sunnyvale, CA, USA). Subsequently, media was replaced by serum-containing alamar-blue free medium and incubated for additional 24–72 h, measuring the alamar-blue reduction every 24 h. […]
In general terms: Resazurin is reduced to fluorescent resorufin, in cell work by metabolically active cells.

A further assay concerns pituitary adenoma cells. Put plainly: cell viability in all pituitary adenoma subtypes, peptide treatment. The assay is classed as cell-based, human. The following applies: 100 nM, 24-, 48- and/or 72-h, alamar-blue. How it is done: as §3, with “Cells suspensions were washed once in 4.5 g/L glucose containing DMEM medium (Gibco, Madrid, Spain) supplemented with 0.1% BSA, 0.01% L-glutamine, 1% antibiotic-antimycotic solution, and 2.5% HEPES. Cell number and viability was estimated by the Trypan blue exclusion test in Neubauer chamber, where viability was always 90–100%.” left out
As previously reported, cell viability was estimated using alamar-blue reagent (10,000 cells/well-plate; Biosource International, Camarillo, CA, USA)[30][50][52]. […] Reduction of alamar-blue reagent was quantified exciting at 560 nm and reading at 590 nm using the FlexStation III system (Molecular Devices, Sunnyvale, CA, USA). […]

For assay [4], the system named is ACTH-omas. Details: method as in PMID 17280594. The following applies: previous data; cited from earlier work.

Consider `CCCCCCCC(=O)OC[C@H](NC(=O)[C@H](CO)NC(=O)CN)C(=O)N[C@@H](Cc1ccccc1)C(=O)N[C@@H](CC(C)C)C(=O)N[C@@H](CO)C(=O)N1CCC[C@H]1C(=O)N[C@@H](CCC(=O)O)C(=O)N[C@@H](Cc1c[nH]cn1)C(=O)N[C@@H](CCC(N)=O)C(=O)N[C@@H](CCCNC(=N)N)C(=O)N[C@H](C(=O)N[C@@H](CCC(N)=O)C(=O)N[C@@H](CCC(N)=O)C(=O)N[C@@H](CCCNC(=N)N)C(=O)N[C@@H](CCCCN)C(=O)N[C@@H](CCC(=O)O)C(=O)N[C@@H](CO)C(=O)N[C@@H](CCCCN)C(=O)N[C@@H](CCCCN)C(=O)N1CCC[C@H]1C(=O)N1CCC[C@H]1C(=O)N[C@@H](C)C(=O)N[C@@H](CCCCN)C(=O)N[C@@H](CC(C)C)C(=O)N[C@@H](CCC(N)=O)C(=O)N1CCC[C@H]1C(=O)N[C@@H](CCCNC(=N)N)C(=O)O)C(C)C` [AG], for which the GH secretion result in the assay on GH-omas [1] is “similarly and significantly, increased GH secretion; also recorded: promoted GH secretion”. Also, in the assay on ACTH-omas [2], the ACTH secretion result was “significantly increased ACTH secretion”. Moreover, the cell viability result is “significantly increased” with GH-omas [3] (48 h, n = 5–17); “significantly increased” in the assay on GH-omas [3] (72 h, n = 5–17); “modestly increased GH-oma cell viability” in the assay with GH-omas [3] (time not given); “increased cell viability in vitro in all pituitary adenoma subtypes” in the assay with pituitary adenoma cells. The ACTH release result in the assay with ACTH-omas [4] was “able to elicit an effect on ACTH release”.
